In the supplement of paper PMC11451515:

Tested on: SEM cells
Assay: cell viability relative to DMSO control; higher = less cytotoxic
Settings: 48 h
Summary of the method: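 Library compounds in DMSO were pin-dosed into 1536-well plates (5 μl) holding NOMO1 or SEM (500 cells/well) or P12-Ichikawa (1000 cells/well) leukemia cells, across an 11-point threefold series of 47 μM to 0.79 nM. Each cell line had been adapted for at least four passages in each medium. CellTiter-Glo One luminescence was read after 48 h at 37°C. Viability is the per-plate percentage relative to DMSO wells, with cell-free wells as background.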

[1] = HPLM + 10% dialyzed FBS, 0.000781 µM
[2] = HPLM + 10% dialyzed FBS, 0.00234 µM
[3] = HPLM + 10% dialyzed FBS, 0.00702 µM
[4] = HPLM + 10% dialyzed FBS, 0.0211 µM
[5] = HPLM + 10% dialyzed FBS, 0.0632 µM
[6] = HPLM + 10% dialyzed FBS, 0.19 µM
[7] = HPLM + 10% dialyzed FBS, 0.569 µM
[8] = HPLM + 10% dialyzed FBS, 1.71 µM
[9] = HPLM + 10% dialyzed FBS, 5.12 µM
[10] = HPLM + 10% dialyzed FBS, 15.4 µM
[11] = HPLM + 10% dialyzed FBS, 46.1 µM
[12] = RPMI 5 mM glucose + 10% FBS, 0.000781 µM
[13] = RPMI 5 mM glucose + 10% FBS, 0.00234 µM
[14] = RPMI 5 mM glucose + 10% FBS, 0.00702 µM
[15] = RPMI 5 mM glucose + 10% FBS, 0.0211 µM
[16] = RPMI 5 mM glucose + 10% FBS, 0.0632 µM
[17] = RPMI 5 mM glucose + 10% FBS, 0.19 µM
[18] = RPMI 5 mM glucose + 10% FBS, 0.569 µM
[19] = RPMI 5 mM glucose + 10% FBS, 1.71 µM
[20] = RPMI 5 mM glucose + 10% FBS, 5.12 µM
[21] = RPMI 5 mM glucose + 10% FBS, 15.4 µM
[22] = RPMI 5 mM glucose + 10% FBS, 46.1 µM
[23] = RPMI 5 mM glucose + 10% dialyzed FBS, 0.000781 µM
[24] = RPMI 5 mM glucose + 10% dialyzed FBS, 0.00234 µM
[25] = RPMI 5 mM glucose + 10% dialyzed FBS, 0.00702 µM
[26] = RPMI 5 mM glucose + 10% dialyzed FBS, 0.0211 µM
[27] = RPMI 5 mM glucose + 10% dialyzed FBS, 0.0632 µM
[28] = RPMI 5 mM glucose + 10% dialyzed FBS, 0.19 µM
[29] = RPMI 5 mM glucose + 10% dialyzed FBS, 0.569 µM
[30] = RPMI 5 mM glucose + 10% dialyzed FBS, 1.71 µM
[31] = RPMI 5 mM glucose + 10% dialyzed FBS, 5.12 µM
[32] = RPMI 5 mM glucose + 10% dialyzed FBS, 15.4 µM
[33] = RPMI 5 mM glucose + 10% dialyzed FBS, 46.1 µM

| SMILES | cell viability [1] | cell viability [2] | cell viability [3] | cell viability [4] | cell viability [5] | cell viability [6] | cell viability [7] | cell viability [8] | cell viability [9] | cell viability [10] | cell viability [11] | cell viability [12] | cell viability [13] | cell viability [14] | cell viability [15] | cell viability [16] | cell viability [17] | cell viability [18] | cell viability [19] | cell viability [20] | cell viability [21] | cell viability [22] | cell viability [23] | cell viability [24] | cell viability [25] | cell viability [26] | cell viability [27] | cell viability [28] | cell viability [29] | cell viability [30] | cell viability [31] | cell viability [32] | cell viability [33] |
| --- | --- | --- | --- | --- | --- | --- | --- | --- | --- | --- | --- | --- | --- | --- | --- | --- | --- | --- | --- | --- | --- | --- | --- | --- | --- | --- | --- | --- | --- | --- | --- | --- | --- |
| C=CC1=C(C(=O)O)N2C(=O)[C@@H](NC(=O)/C(=N\O)c3csc(N)n3)[C@H]2SC1 | 80.6% | 81.9% | 20.4% | 86.1% | 87.3% | 98.9% | 89.8% | 91.1% | 83.1% | 93.4% | 95.7% | 87.5% | 107% | 10.3% | 104% | 96.7% | 109% | 102% | 108% | 121% | 98.7% | 106% | 83.1% | 86.6% | 27.4% | 108% | 94.5% | 107% | 97.1% | 101% | 116% | 112% | 101% |
| C[C@@H](O)[C@@H]1[C@H]2[C@@H](C)\C(=C(/N2C1=O)C(=O)OCOC(=O)C(C)(C)C)SC3CN(C3)/C4=N/CCS4 | 74.8% | 95.7% | 99.2% | 112% | 117% | 102% | 101% | 108% | 107% | 97.2% | 82.1% | 88.7% | 114% | 119% | 117% | 101% | 116% | 111% | 125% | 117% | 109% | 72.8% | 82.5% | 109% | 120% | 113% | 122% | 138% | 106% | 113% | 121% | 121% | 85.9% |
| COC[C@@H](NC(C)=O)C(=O)NCc1ccccc1 | 117% | 116% | 118% | 118% | 112% | 119% | 124% | 105% | 100% | 120% | 111% | 115% | 111% | 118% | 123% | 99.7% | 115% | 99.9% | 121% | 90.3% | 103% | 116% | 103% | 101% | 102% | 96.7% | 99.4% | 131% | 106% | 105% | 90% | 86.7% | 96.9% |
| CC1(C)CCC(=C(CN2CCN(CC2)C3=CC=C(C=C3)C(=O)N[S+]([O-])(=O)C4=CC(=C(N[C@H](CCN5CCOCC5)CSC6=CC=CC=C6)C=C4)[S+]([O-])(=O)C(F)(F)F)\C1)/C7=CC=C(Cl)C=C7 | 124% | 124% | 126% | 106% | 80.9% | 18.3% | 11.3% | 8.83% | 8.56% | 7.32% | 5.38% | 85.5% | 108% | 95.9% | 82.8% | 42.1% | 19.6% | 8.77% | 6.49% | 5.65% | 5.78% | 4.31% | 111% | 135% | 100% | 102% | 49.6% | 21% | 9.94% | 6.79% | 6.8% | 5.99% | 4.42% |
| Cc1cccc(-c2nn(C(=S)Nc3ccccc3)cc2-c2ccnc3ccccc23)n1 | – | – | – | – | – | – | – | – | – | – | – | 117% | 124% | 139% | 131% | 152% | 130% | 121% | 126% | 110% | 118% | 42.2% | – | – | – | – | – | – | – | – | – | – | – |
| CCC(=O)OCC(=O)[C@@]1(OC(=O)CC)[C@@H](C)C[C@H]2[C@@H]3CCC4=CC(=O)C=C[C@]4(C)[C@@]3(F)[C@@H](O)C[C@@]21C | 78.1% | 99.1% | 93.2% | 98.5% | 100% | 102% | 84.2% | 90.7% | 91.8% | 70.2% | 61.2% | 104% | 114% | 116% | 114% | 116% | 95.6% | 87.3% | 71.5% | 79.4% | 69.9% | 50.3% | 116% | 115% | 126% | 112% | 115% | 88.5% | 92.6% | 75.3% | 69.7% | 65.9% | 48.8% |
| O=C(O)c1ccc(-n2nc(-c3ccccc3O)nc2-c2ccccc2O)cc1 | 86.4% | 93% | 85.3% | 92% | 90.9% | 94.6% | 96.4% | 98% | 101% | 82.1% | 43% | 80.7% | 76.6% | 86.7% | 86.8% | 100% | 96.9% | 93.3% | 93.7% | 108% | 66% | 24.9% | 77.6% | 76% | 91% | 98.1% | 95.5% | 108% | 102% | 102% | 99.1% | 58.8% | 19.4% |
| O=C(NC[C@H](O)CN1CCc2ccccc2C1)c1cc(NC2COC2)ncn1 | 58.8% | 84.9% | 91.5% | 81.6% | 86.3% | 75% | 68.5% | 71.6% | 78.4% | 68.6% | 26.9% | 71.9% | 145% | 124% | 141% | 132% | 121% | 108% | 108% | 114% | 88.5% | 47.2% | 59% | 107% | 100% | 91.1% | 73.8% | 81% | 80.5% | 75.2% | 84.2% | 65.1% | 25.2% |
